Experiments:
[1] = test system: rice leafroller (Cnaphalocrosis medinalis); conditions: 500 ppm; rice lamina immersed about 30 seconds; third-instar larvae; four days after the inoculation; 25° C., humidity 70%
Experimental: Insecticidal effect on rice leafroller (Cnaphalocrosis medinalis)
After air-dryness, the lamina was placed in a plastic Petri dish with a diameter of 9 cm whose bottom had been covered with a wetted filter paper. The lamina was inoculated with third-instar larvae of rice leafroller, after which the dish was allowed to stand in a room thermostatted at 25° C. and having a humidity of 70%. Four days after the inoculation, the dead and alive were counted and the insecticidal effect was judged according to the criterion shown in Test Example 1. The test was carried out with triplicate groups of 10 insects.

[2] = test system: diamond back moth (Plutella xylostella); type: in vivo; conditions: 1,000 ppm; Chinese cabbage seedling with eggs immersed about 30 seconds; counted six days after the immersion; 25° C.
Text: Insecticidal effect on diamond back moth (Plutella xylostella)
Adult diamond back moths were released and allowed to oviposit on a Chinese cabbage seedling. […] Six days after the immersion, the hatched insects were counted. […] [formula] Criterion • A - - - Mortality 100% • B - - - Mortality 99-90% • C - - - Mortality 89-80% • D - - - Mortality 79-50%

[3] = test system: Common cutworm (Spodoptera litura); type: in vivo; conditions: 500 ppm; cabbage leaf immersed about 30 seconds; second-instar larvae; eight days after the inoculation; 25° C.
Text: Insecticidal Effect on Common cutworm (Spodoptera litura)

Measured: insecticidal effect (activity ranking by mortality)

Cc1cc(C(F)(C(F)(F)F)C(F)(F)F)ncc1NC(=O)c1cccc(I)c1C(=O)NC(C)(C)C [Q27-142]
B or higher: all assays above

CCN(CC)C(=O)c1c(I)cccc1C(=O)Nc1ncc(C(F)(F)C(F)(F)C(F)(F)F)cc1C [Q26-30]
B or higher: all assays above

CCN(CC)C(=O)c1c(I)cccc1C(=O)Nc1ncc(C(F)(F)C(F)(F)F)cc1C [Q26-29]
B or higher: all assays above

CC(C)NC(=O)c1c(Cl)cccc1C(=O)Nc1ccc(Oc2ccc(Br)cc2)nc1 [Q27-29]
B or higher: all assays above

Cc1cc(Cl)ncc1NC(=O)c1cccc(Cl)c1C(=O)NC(C)C [Q27-81]
B or higher: all assays above

CC(C)(C)NC(=O)c1c(I)cccc1C(=O)Nc1ccc(C(F)(F)C(F)(F)F)nc1 [Q27-140]
B or higher: all assays above

CCN(CC)C(=O)c1c(I)cccc1C(=O)Nc1ncc(C(F)(C(F)(F)F)C(F)(F)F)cc1C [Q26-31]
B or higher: all assays above

CSCC(C)NC(=O)c1c(I)cccc1C(=O)Nc1ccc(C(F)(C(F)(F)F)C(F)(F)F)nc1C (stereo not drawn) [Q27-145]
B or higher: all assays above

Cc1nc(C(F)(C(F)(F)F)C(F)(F)F)ccc1NC(=O)c1cccc(I)c1C(=O)NC(C)(C)C [Q27-143]
B or higher: all assays above

CSCC(C)NC(=O)c1c(I)cccc1C(=O)Nc1cnc(C(F)(C(F)(F)F)C(F)(F)F)cc1C (stereo not drawn) [Q27-144, N^1-(4-methyl-2-heptafluoroisopropyl-pyridin-5-yl)-N^2-(1-methyl-2-methylthioethyl),-3-iodophthalamide]
B or higher: all assays above

CC(C)CSc1ccc(NC(=O)c2c(Cl)cccc2C(=O)NC(C)C)cn1 [Q27-127]
B or higher: all assays above

CC(C)NC(=O)c1cccc(Cl)c1C(=O)Nc1ccc(Oc2ccc(Cl)cc2Cl)nc1 [Q27-125]
B or higher: all assays above

CC(C)NC(=O)c1cccc(Cl)c1C(=O)Nc1ccc(Oc2ccc(Br)cc2)nc1 [Q27-124]
B or higher: all assays above

CC(C)NC(=O)c1c(Cl)cccc1C(=O)Nc1ccc(Oc2ccc(Cl)cc2Cl)nc1 [Q27-30]
B or higher: all assays above

CCN(CC)C(=O)c1c(I)cccc1C(=O)Nc1ccc(Oc2ccc(Br)cc2)nc1 [Q27-132]
B or higher: all assays above

Cc1cc(Oc2ccc(Br)cc2)ncc1NC(=O)c1cccc(Cl)c1C(=O)NC(C)C [Q27-98]
B or higher: all assays above

CC(C)(C)NC(=O)c1c(I)cccc1C(=O)Nc1ccc(C(F)(F)C(F)(F)C(F)(F)F)nc1 [Q27-141]
B or higher: all assays above

CCN(CC)C(=O)c1c(I)cccc1C(=O)Nc1ccc(C(F)(F)C(F)(F)C(F)(F)F)nc1 [Q27-131]
B or higher: all assays above

— patent US6875768B1, “Phthalamide derivatives, intermediates in the production thereof, and agricultural/horticultural insecticides and method for using the same” (Nihon Nohyako Co., Ltd., priority 1999, dated 2005)
